The source of these data is patent publication US20150329537A2, “CDK9 INHIBITORS IN THE TREATMENT OF MIDLINE CARCINOMA” (LEADDISCOVERY CENTER GMBH, priority 2011, published 2015).

A value given as a limit tells only on which side of the number the result lay.

For experiment [1], the system named is HCC2429 cells. Description: Proliferation / cell viability assay (Cell Titer Glo). It counts as cell-based. As to conditions: FIG. 1; for effect on proliferation of HCC2429 cells (in words): dose response experiments. On the procedure: Proliferation assays were performed as described below under materials and methods. […] (Cpd B1 and Ro-3306) were applied at concentrations between 30 and 0.0137 μM. After 72 h incubation with compounds ATP content/proliferation was determined employing CTG (Promega). Relative proliferation values (compared to vehicle control) were used to calculate IC50 values (Excel fit; algorithm #205). IC50s of the respective compound (Y-axis; logarithmic scale) on proliferation of various cell lines (X-axis) are depicted in black bars. White bars indicate that an IC50 could not be determined due to too low activity and therefore was higher than the highest applied concentration in the assays (30 μM). IC50s of compounds on CDK9 inhibitor sensitive cell line HCC2429 are presented in grey bars.
Cell lines were maintained in RPMI 1640 cell culture medium+glutamine (PAN Biotech GmbH, Aidenbach, Germany; order no. P04-22100; P04-05500) supplemented with 10% fetal calf serum “Gold” (PAA Laboratories GmbH, Pasching, Austria; order no. A15-151) and grown in a humidified atmosphere at 37° C., 5% C02. As a first step, an optimal cell density for each cell line was determined to guarantee linearity. For viability assays with compounds, cells were then seeded at a density of 200 to 1000 per well in 25 μl in 384-well plates (Greiner Bio-One, Frickenhausen, Germany; order no. 781080). After overnight incubation at 37° C./5% CO2, 25 nl or 75 nl compounds were added to each sample well by using BIOMEK FX^P Laboratory Automation Workstation (Beckman Coulter, USA). Wells with cells and 0.1% or 0.3% DMSO in culture medium were used as positive controls, wells with cells and 10 μM staurosporine (Selleck Chemicals, Huston, USA) in culture medium were used as negative controls. Upon incubation with compounds for 72 h at 37° C./5% CO2 25 μl Cell Titer Glo reagent (Promega, Madison, USA, order no. G7573; 1:2 diluted with cell culture medium) was added to each well to determine cell viability. […] Luminescence was measured by Envision Plate Reader (Perkin Elmer, USA). […]
For orientation: Cellular ATP, detected with luciferase, serves as a proxy for viable cell number.

The target in experiment [2] is T1, CDK9/CycT (Homo sapiens, UniProt P50750).
T1 construct: purchased ProQinase
The experiment is described as follows: Radiometric protein kinase assay (33PanQinase Activity Assay). It counts as biochemical. As to conditions: 10 μM compound, compared to vehicle control, 23 different kinases, FIG. 3. On the procedure:
A similar experimental procedure is performed when the resulting activity within ^33PanQinase® assay is done. In advance buffers are prepared but in this case the pipetting sequence is first ATP solution diluted with assay buffer, DMSO or compound solution. The reaction (1 h at 30° C.) is started by addition of a substrate-kinase mix. During the incubation the kinase phosphorylates the substrate (different for each kinase). Due to the fact that the ATP solution contains ^33P labelled ATP the substrate proteins are labeled with ^33P. The reaction is stopped by addition of excess H3PO4. If the reaction is performed in plates binding substrate proteins, said plates are washed to reduce unspecific signals (mainly not used ATP). The incorporation of ^33P into substarte proteins is a direct measure of activity of the respective kinase. Therefore, the incorporated radioactivity is detected by scintillation counting. Data is evaluated, processed and analyzed as described for the LANCE assays.
A radiometric protein kinase assay (33PanQinase® Activity Assay) was used for measuring the kinase activity of the […] protein kinases. […]
The reaction cocktails were incubated at 30° C. for 60 minutes. […] Incorporation of 33Pi (counting of “cpm”) was determined with a microplate scintillation counter (Microbeta, Wallac).

The test system of experiment [3] is Brd4-Nut mutated cell lines (HCC2429, TY-82, 690100, 143100). Description: Proliferation assay on Brd4-Nut mutated versus wild type cell lines. It counts as cell-based. Particulars: mutated: HCC2429, TY-82, 690100, 143100; wild type: Hela, HCC366, H460, HCC1143, hPBMCs; FIG. 4. On the procedure:
The proliferation results are presented as IC50 in μM. First, the anti-proliferative effect of CDK9 inhibitors is much more pronounced on BrdNut mutated cell lines (=sensitive cell lines).
Cell lines were maintained in RPMI 1640 cell culture medium+glutamine (PAN Biotech GmbH, Aidenbach, Germany; order no. P04-22100; P04-05500) supplemented with 10% fetal calf serum “Gold” (PAA Laboratories GmbH, Pasching, Austria; order no. A15-151) and grown in a humidified atmosphere at 37° C., 5% C02. As a first step, an optimal cell density for each cell line was determined to guarantee linearity. For viability assays with compounds, cells were then seeded at a density of 200 to 1000 per well in 25 μl in 384-well plates (Greiner Bio-One, Frickenhausen, Germany; order no. 781080). After overnight incubation at 37° C./5% CO2, 25 nl or 75 nl compounds were added to each sample well by using BIOMEK FX^P Laboratory Automation Workstation (Beckman Coulter, USA). Wells with cells and 0.1% or 0.3% DMSO in culture medium were used as positive controls, wells with cells and 10 μM staurosporine (Selleck Chemicals, Huston, USA) in culture medium were used as negative controls. […] Luminescence was measured by Envision Plate Reader (Perkin Elmer, USA). […]

In general, IC50 refers to the midpoint of a concentration-inhibition curve. Read a high IC50 as weaker potency.

T1 sequence (P50750 whole entry): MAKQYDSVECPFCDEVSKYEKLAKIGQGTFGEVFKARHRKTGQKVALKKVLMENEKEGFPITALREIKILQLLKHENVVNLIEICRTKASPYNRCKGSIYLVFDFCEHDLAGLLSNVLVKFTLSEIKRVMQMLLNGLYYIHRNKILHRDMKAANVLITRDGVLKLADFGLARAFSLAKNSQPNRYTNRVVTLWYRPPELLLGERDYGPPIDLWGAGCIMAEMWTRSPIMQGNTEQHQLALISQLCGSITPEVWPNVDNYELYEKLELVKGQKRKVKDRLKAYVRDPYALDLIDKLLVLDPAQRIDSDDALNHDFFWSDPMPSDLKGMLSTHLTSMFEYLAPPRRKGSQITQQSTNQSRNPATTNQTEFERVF
T1 sequence (O60563 whole entry partner): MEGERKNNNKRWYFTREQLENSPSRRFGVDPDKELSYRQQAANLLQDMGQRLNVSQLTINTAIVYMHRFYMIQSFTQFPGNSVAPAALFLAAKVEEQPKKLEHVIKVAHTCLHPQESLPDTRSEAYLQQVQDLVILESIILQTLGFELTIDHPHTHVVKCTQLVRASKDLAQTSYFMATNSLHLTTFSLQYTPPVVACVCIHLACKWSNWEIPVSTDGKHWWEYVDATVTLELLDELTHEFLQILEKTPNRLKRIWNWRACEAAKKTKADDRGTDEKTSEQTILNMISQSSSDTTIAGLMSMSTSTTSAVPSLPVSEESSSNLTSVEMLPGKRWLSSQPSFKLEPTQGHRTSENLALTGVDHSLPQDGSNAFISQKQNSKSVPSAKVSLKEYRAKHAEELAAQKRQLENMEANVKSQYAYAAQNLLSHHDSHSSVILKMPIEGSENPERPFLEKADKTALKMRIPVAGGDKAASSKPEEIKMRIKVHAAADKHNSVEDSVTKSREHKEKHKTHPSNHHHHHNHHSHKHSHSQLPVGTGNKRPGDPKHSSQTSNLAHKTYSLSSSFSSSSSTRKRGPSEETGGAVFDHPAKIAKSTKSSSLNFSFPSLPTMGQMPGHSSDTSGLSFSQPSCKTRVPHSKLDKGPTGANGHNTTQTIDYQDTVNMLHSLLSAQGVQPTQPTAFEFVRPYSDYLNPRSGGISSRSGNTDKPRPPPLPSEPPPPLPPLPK

With `COc1ccccc1-c1ncnc(Nc2cccc(CS(N)(=O)=O)c2)n1` [Cpd B1, 3-[(4-(2-Methoxyphenyl)-1,3,5-triazin-2-yl)amino] benzenemethanesulfonamide], in experiment [1], the “effect on proliferation of HCC2429 cells (in words)” value was “potently affected proliferation of HCC2429 cells”. Also, the “inhibition of CDK9 kinase activity, residual activity (in words)” value in experiment [2] is on record as “inhibits only CDK9 with high potency”.
`O=C1NC(=NCc2cccs2)S/C1=C\c1ccc2ncccc2c1` [Ro-3306] had an IC50 in experiment [1] (72 h incubation, ATP content/proliferation by CTG, 30 to 0.0137 μM) greater than 10 µM. In experiment [1], the “effect on proliferation of HCC2429 cells (in words)” value is “did not show comparable effects”.
For the compound `COc1ccccc1-c1cc(Nc2cccc(CS(N)(=O)=O)c2)ncn1` [1073485-20-7P, 3-[[6-(2-methoxyphenyl)-4-pyrimidinyl]amino]-Benzenemethanesulfonamide], in experiment [3], the “proliferation inhibition in mutated, sensitive cell lines compared with wild type cell lines (in words)” value is listed as “much more potent in mutated, sensitive cell lines”.
